Results reported in US20260306527A1, “PRMT INHIBITOR COMPOUNDS AND THE USES THEREOF” (Purdue Research Foundation, priority 2023, published 2026).

Columns and labels:
[1] = test system: PRMT3; experiment: SAHH-coupled fluorescence assay, inhibition of PRMT3; assay type: biochemical; details: read-out: IC50 [µM] | PRMT3
Outline: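 Coupled SAHH/ThioGlo4 fluorescence read-out (ex 380 nm, em 505 nm) of PRMT3 (0.25 μM) methylation with 30 μM AdoMet and 5 μM SAHH. Buffer was 20 mM Tris pH 7.5 with 0.01% Triton X-100. Run in duplicate.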

[2] = target: PRMT6 (Homo sapiens, UniProt Q96LA8); experiment: selectivity of YD1113/YD1290 on PRMT panel, PRMT6; assay type: biochemical; details: 10 μM; PRMT panel
Chain of PRMT6 (Q96LA8 whole entry, species assumed): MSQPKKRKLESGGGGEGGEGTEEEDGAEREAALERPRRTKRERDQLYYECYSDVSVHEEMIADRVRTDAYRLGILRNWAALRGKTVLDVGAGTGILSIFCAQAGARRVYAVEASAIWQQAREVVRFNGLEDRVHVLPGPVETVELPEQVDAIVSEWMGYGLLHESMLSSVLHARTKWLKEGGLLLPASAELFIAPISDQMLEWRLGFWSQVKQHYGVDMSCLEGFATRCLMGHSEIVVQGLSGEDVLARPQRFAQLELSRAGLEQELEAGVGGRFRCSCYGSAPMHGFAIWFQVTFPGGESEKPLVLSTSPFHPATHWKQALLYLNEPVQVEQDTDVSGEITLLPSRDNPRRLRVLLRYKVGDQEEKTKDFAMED
Experimental: The selectivity of compounds YD1113 and YD1290 on PRMTs were performed by Reaction Biology Corp.
Next, the selectivity of YD1113 was investigated on a panel of PRMTs at 10 μM.
After validating the benzyl urea moiety as an unconventional homocysteine mimic of SAH for PRMTs, it was hypothesized that incorporating the benzyl urea moiety into the original pan PRMT inhibitor II757 would build a potent bisubstrate inhibitor. […] To enable a stable tri-substitution, the sulfur atom with a nitrogen atom was replaced. YD1290 was synthesized following the reported methods 9, 15 and tested in a radioactivity assay for PRMTs (FIG. 6b).

[3] = target: T1, PRMT1 (Homo sapiens, UniProt Q99873); experiment: thermal shift assay PRMT1; assay type: binding; details: 100 μM compound, 10 μM protein
T1 construct: made in house
T1 sequence (Q99873 whole entry, species assumed): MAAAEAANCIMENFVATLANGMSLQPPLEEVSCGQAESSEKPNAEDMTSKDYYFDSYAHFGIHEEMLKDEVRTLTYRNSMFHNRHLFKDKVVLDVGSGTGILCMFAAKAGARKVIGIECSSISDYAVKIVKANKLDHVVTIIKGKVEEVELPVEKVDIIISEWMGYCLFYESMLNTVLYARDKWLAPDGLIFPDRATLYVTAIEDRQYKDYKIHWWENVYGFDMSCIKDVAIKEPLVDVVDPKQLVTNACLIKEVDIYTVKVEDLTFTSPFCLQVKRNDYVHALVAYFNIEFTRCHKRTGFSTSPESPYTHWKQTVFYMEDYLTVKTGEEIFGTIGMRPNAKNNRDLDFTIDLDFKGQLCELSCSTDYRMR
Experimental: (§1) The fluorescence-based thermal shift assay was performed using a StepOne plus qPCR instrument (Thermal Fisher). For PRMT1, 10 μM of protein was mixed with 2× sypro orange and DMSO, or 100 μM SAM, or 100 μM YD1113, or 100 μM YD1290 in a buffer consisting of 2.5 mM HEPES (pH=7.0), 25 mM NaCl, 25 μM EDTA, 50 μM TCEP, 0.01% Triton X-100. For PRMT3, 20 μM of protein was mixed with 2× sypro orange and DMSO, or 100 μM SAM, or 100 μM YD1113, or 100 μM YD1290 in a buffer consisting of 20 mM Tris (pH=7.5), 0.01% Triton X-100. For PRMT4, 20 μM of protein was mixed with 2× sypro orange and DMSO, or 100 μM SAM, or 100 μM YD1113, or 100 μM YD1290 in a buffer consisting of 20 mM bicine (pH=8.5), 0.01% Triton X-100. All samples were heated from 25° C. to 75° C. at an increased rate of 0.5° C. per minute. Protein denaturation was monitored by the increased fluorescence signal of Sypro Orange, which captures exposed hydrophobic residues during thermal unfolding. The recorded curves were analyzed by the software StepOne plus and plotted in GraphPad Prism 8 software.
(§2) Next, the thermal shift assay (TSA) was conducted as an orthogonal method to examine the effects of YD1290 on the thermal stability of PRMT1, 3, and 4 (Figure S1).

[4] = target: T2, PRMT3 (Homo sapiens, UniProt O60678); experiment: inhibition mechanism study on PRMT3, SAHH-coupled fluorescence; assay type: biochemical; design: PRMT3 (residues 211-531) was cloned into the pET28a-MHL expression vector; tag of the pET28a-MHL vector (not described); made in house; host or cells: Escherichia coli BL21(DE3); details: role: inhibitor
T2 sequence (O60678 211-531): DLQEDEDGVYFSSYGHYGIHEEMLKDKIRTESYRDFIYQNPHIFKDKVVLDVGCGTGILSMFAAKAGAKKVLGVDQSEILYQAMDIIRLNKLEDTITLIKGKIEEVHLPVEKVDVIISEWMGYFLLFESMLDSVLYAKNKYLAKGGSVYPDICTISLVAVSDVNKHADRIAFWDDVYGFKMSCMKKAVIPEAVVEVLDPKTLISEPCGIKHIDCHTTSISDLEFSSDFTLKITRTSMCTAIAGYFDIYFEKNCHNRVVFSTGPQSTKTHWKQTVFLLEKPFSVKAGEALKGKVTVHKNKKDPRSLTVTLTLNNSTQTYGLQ
Experimental: The inhibition mechanism of YD1113 on PRMT3 was studied with the fluorescence-based SAHH-coupled assay. Varying concentrations of SAM (from 30 to 240 μM) with 30 μM fixed concentration of H4-21 or varying concentration of H4-21 (from 15 to 240 μM) with 30 μM fixed concentration of SAM were included in reactions at concentration of YD1113 ranging from 1.5 nM to 100 μM.
All the IC50 values were determined in triplicate. Fluorescence was monitored on a BMG CLARIOstar microplate reader with excitation 380 nm and emission 505 nm. Data were processed by using GraphPad Prism software 8.0.
The sensitivity of YD1113 to the steric effects in the above SAR studies (Table 1; FIG. 9) is inexplicable by a relatively open and tolerable peptide substrate binding channel of PRMTs. (Tewary et al. 2019) This contradiction prompted the hypothesis that YD1113 binds to an alternative pocket rather than acts as a bisubstrate analogue to reach the peptide binding pocket. This hypothesis was tested by investigating its inhibition mechanism with a SAHH-coupled fluorescence-based assay. (Richardson et al. 2015) The IC50 values of YD1113 remained constant with the increased ratio of peptide/Km (FIG. 3a-b) while increasing linearly with the ratio of SAM/Km (FIG. 3c-d). […]

[5] = target: T2, PRMT3; experiment: thermal shift assay PRMT3; assay type: binding; design: PRMT3 (residues 211-531) was cloned into the pET28a-MHL expression vector; tag of the pET28a-MHL vector (not described); made in house; host or cells: Escherichia coli BL21(DE3); details: 100 μM compound, 20 μM protein
Experimental: as §1, §2

IC50 [1]: 0.52 ± 0.07 µM
inhibition at 10 µM [2]: < 35%
ΔTm at 100 µM [3]: 0.6 °C
inhibition mechanism vs peptide substrate, PRMT3 ([4]; H4-21 15 to 240 μM, SAM 30 μM fixed): noncompetitive to the peptide substrate
inhibition mechanism vs SAM, PRMT3 ([4]; SAM 30 to 240 μM, H4-21 30 μM fixed): competitive to SAM
ΔTm at 100 µM [5]: 5.8 °C
SMILES: Nc1ncnc2c1ncn2[C@@H]1O[C@H](CSCCNC(=O)NCc2ccccc2)[C@@H](O)[C@H]1O [Compound 7a, 1-(2-((((2S,3S,4R,5R)-5-(6-amino-9H-purin-9-yl)-3,4-dihydroxytetrahydrofuran-2-yl)methyl)thio)ethyl)-3-benzylurea]
